Laboratory results published in paper PMC5630020 (Genes & Development, 2017).

B1: E. coli SspA, wild type (natural protein, UniProt P0ACA3 1-212, looked up)
chain: MAVAANKRSVMTLFSGPTDIYSHQVRIVLAEKGVSFEIEHVEKDNPPQDLIDLNPNQSVPTLVDRELTLWESRIIMEYLDERFPHPPLMPVYPVARGESRLYMHRIEKDWYTLMNTIINGSASEADAARKQLREELLAIAPVFGQKPYFLSDEFSLVDCYLAPLLWRLPQLGIEFSGPGAKELKGYMTRVFERDSFLASLTEAEREMRLGRS
notes: also called wild-type SspA; E. coli SspA homodimer

Experiments:
E. coli SspA homodimer = E. coli SspA homodimer (Escherichia coli, UniProt P0ACA3); type: binding
SEC = molecular target: the molecule itself; assay: SEC

Molecule	DRaCALA (E. coli SspA homodimer)	stoichiometry N (SEC)
Nc1nc2c(ncn2[C@@H]2O[C@H](COP(=O)(O)OP(=O)(O)O)[C@@H](OP(=O)(O)OP(=O)(O)O)[C@H]2O)c(=O)[nH]1 [ppGpp]	only very weak binding requiring ppGpp concentrations in the high micromolar range	–
B1	–	2
